Results published in ChEMBL document CHEMBL4359892, “Discovery of novel indolylarylsulfones as potent HIV-1 NNRTIs via structure-guided scaffold morphing” (Eur J Med Chem, 2019).

Experiments:
[1] = tested on: Human immunodeficiency virus 1; assay: Antiviral activity against drug resistant HIV-1 harboring reverse transcriptase K103N mutant infected in human MT4 cells assessed as reduction in virus-induced cytopathic effect incubated for 5 days by MTT assay; format: functional, organism-based; details: Human immunodeficiency virus 1, MT4, 120 h
[2] = tested on: Human immunodeficiency virus 1; assay: Antiviral activity against drug resistant HIV-1 harboring reverse transcriptase L100I mutant infected in human MT4 cells assessed as reduction in virus-induced cytopathic effect incubated for 5 days by MTT assay; format: functional, organism-based; details: Human immunodeficiency virus 1, MT4, 120 h
[3] = tested on: Human immunodeficiency virus 1; assay: Antiviral activity against drug resistant HIV-1 RES056 harboring reverse transcriptase K103N/Y181C double mutant infected in human MT4 cells assessed as reduction in virus-induced cytopathic effect incubated for 5 days by MTT assay; format: functional, organism-based; details: Human immunodeficiency virus 1, RES056, MT4, 120 h
[4] = tested on: Human immunodeficiency virus 1; assay: Antiviral activity against drug resistant HIV-1 harboring reverse transcriptase Y188L mutant infected in human MT4 cells assessed as reduction in virus-induced cytopathic effect incubated for 5 days by MTT assay; format: functional, organism-based; details: Human immunodeficiency virus 1, MT4, 120 h
[5] = tested on: Human immunodeficiency virus 1; assay: Antiviral activity against drug resistant HIV-1 harboring reverse transcriptase Y181C mutant infected in human MT4 cells assessed as reduction in virus-induced cytopathic effect incubated for 5 days by MTT assay; format: functional, organism-based; details: Human immunodeficiency virus 1, MT4, 120 h
[6] = Cytotoxicity against human MT4 cells assessed as reduction in cell viability incubated for 5 days by MTT assay; format: cell-based
[7] = tested on: Human immunodeficiency virus 1; assay: Antiviral activity against drug resistant HIV-1 harboring reverse transcriptase F227L/V106A double mutant infected in human MT4 cells assessed as reduction in virus-induced cytopathic effect incubated for 5 days by MTT assay; format: functional, organism-based; details: Human immunodeficiency virus 1, MT4, 120 h
[8] = tested on: Human immunodeficiency virus 1; assay: Antiviral activity against HIV-1 3B infected in human MT4 cells assessed as reduction in virus-induced cytopathic effect incubated for 5 days by MTT assay; format: functional, organism-based; details: Human immunodeficiency virus 1, 3B, MT4, 120 h
[9] = tested on: Human immunodeficiency virus 1; assay: Antiviral activity against drug resistant HIV-1 harboring reverse transcriptase E138K mutant infected in human MT4 cells assessed as reduction in virus-induced cytopathic effect incubated for 5 days by MTT assay; format: functional, organism-based; details: Human immunodeficiency virus 1, MT4, 120 h
[10] = Selectivity index, ratio of CC50 for human MT4 cells to EC50 for antiviral activity against HIV IIIB; format: toxicity; details: read-out: Ratio CC50/EC50
[11] = Selectivity index, ratio of CC50 for human MT4 cells to EC50 for antiviral activity against HIV RES056; format: toxicity; details: read-out: Ratio CC50/EC50
[12] = biological target: Human immunodeficiency virus type 1 reverse transcriptase (Human immunodeficiency virus 1, UniProt Q72547); assay: Inhibition of HIV1 reverse transcriptase assessed as inhibition of biotin-dUTP incorporation into template incubated for 1 hr by ELISA
[13] = tested on: Human immunodeficiency virus 1; assay: Potency index, ratio of EC50 of NVP to EC50 of compound for antiviral activity against HIV-1 3B infected in human MT4 cells assessed as reduction in virus-induced cytopathic effect incubated for 5 days by MTT assay; format: functional
[14] = tested on: Human immunodeficiency virus 1; assay: Potency index, ratio of EC50 of AZT to EC50 of compound for antiviral activity against HIV-1 3B infected in human MT4 cells assessed as reduction in virus-induced cytopathic effect incubated for 5 days by MTT assay; format: functional
[15] = Acute toxicity in Kunming mouse assessed as effect on animal growth at 1000 mg/kg, ig administered as single dose and observed every day for 1 week; format: organism-based; details: in vivo, po, 168 h
[16] = Sub-acute toxicity in Kunming mouse assessed as effect on animal death at 50 mg/kg, po administered once every other day for 14 days; format: organism-based; details: in vivo, 336 h
[17] = Sub-acute toxicity in Kunming mouse assessed as liver damage at 50 mg/kg, po administered once every other day for 14 days measured on day 14 by HE-staining based assay; format: organism-based; details: in vivo, 336 h
[18] = Sub-acute toxicity in Kunming mouse assessed as effect on anorexia at 50 mg/kg, po administered once every other day for 14 days; format: organism-based; details: in vivo, 336 h
[19] = Sub-acute toxicity in Kunming mouse assessed as kidney damage at 50 mg/kg, po administered once every other day for 14 days measured on day 14 by HE-staining based assay; format: organism-based; details: in vivo, 336 h
[20] = Acute toxicity in Kunming mouse assessed as effect on clonic convulsion at 1000 mg/kg, ig administered as single dose and observed every day for 1 week; format: organism-based; details: in vivo, po, 168 h
[21] = Sub-acute toxicity in Kunming mouse assessed as effect on ruffled fur at 50 mg/kg, po administered once every other day for 14 days; format: organism-based; details: in vivo, 336 h
[22] = Sub-acute toxicity in Kunming mouse assessed as heart damage at 50 mg/kg, po administered once every other day for 14 days measured on day 14 by HE-staining based assay; format: organism-based; details: in vivo, 336 h
[23] = Sub-acute toxicity in Kunming mouse assessed as spleen damage at 50 mg/kg, po administered once every other day for 14 days measured on day 14 by HE-staining based assay; format: organism-based; details: in vivo, 336 h
[24] = Sub-acute toxicity in Kunming mouse assessed as effect on animal growth at 50 mg/kg, po administered once every other day for 14 days; format: organism-based; details: in vivo, 336 h
[25] = Sub-acute toxicity in Kunming mouse assessed as effect on clonic convulsion at 50 mg/kg, po administered once every other day for 14 days; format: organism-based; details: in vivo, 336 h
[26] = Acute toxicity in Kunming mouse assessed as effect on animal death at 1000 mg/kg, ig administered as single dose and observed every day for 1 week; format: organism-based; details: in vivo, po, 168 h
[27] = Sub-acute toxicity in Kunming mouse assessed as effect on lethargy at 50 mg/kg, po administered once every other day for 14 days; format: organism-based; details: in vivo, 336 h
[28] = Acute toxicity in Kunming mouse assessed as effect on ruffled fur at 1000 mg/kg, ig administered as single dose and observed every day for 1 week; format: organism-based; details: in vivo, po, 168 h
[29] = Acute toxicity in Kunming mouse assessed as effect on body weight gain at 1000 mg/kg, ig administered as single dose and observed every day for 1 week; format: organism-based; details: in vivo, po, 168 h
[30] = Sub-acute toxicity in Kunming mouse assessed as lungs damage at 50 mg/kg, po administered once every other day for 14 days measured on day 14 by HE-staining based assay; format: organism-based; details: in vivo, 336 h
[31] = Acute toxicity in Kunming mouse assessed as effect on anorexia at 1000 mg/kg, ig administered as single dose and observed every day for 1 week; format: organism-based; details: in vivo, po, 168 h
[32] = Sub-acute toxicity in Kunming mouse assessed as increase in body weight at 50 mg/kg, po administered once every other day for 14 days; format: organism-based; details: in vivo, 336 h
[33] = Acute toxicity in Kunming mouse assessed as effect on lethargy at 1000 mg/kg, ig administered as single dose and observed every day for 1 week; format: organism-based; details: in vivo, po, 168 h

Row | SMILES | EC50 [1] [µM] | EC50 [2] [µM] | EC50 [3] [µM] | EC50 [4] [µM] | EC50 [5] [µM] | CC50 at 120 h [6] [µM] | EC50 [7] [µM] | EC50 [8] [µM] | EC50 [9] [µM] | selectivity ratio [10] | selectivity ratio [11] | Ratio EC50 [13] | Ratio EC50 [14] | further results
1 | Cc1cc(C)cc(S(=O)(=O)c2c(C(=O)NS(=O)(=O)c3ccc(F)cc3)[nH]c3ccc(Cl)cc23)c1 | 21.6 | 10 | > 253 | > 253 | 45.8 | > 253 | 38.6 | 2.95 | 3.78 | > 86 | < 1 | – | – | –
2 | Cc1cc(C)cc(S(=O)(=O)c2c(C(=O)N[C@H]3CCN(S(C)(=O)=O)C3)[nH]c3ccc(Cl)cc23)c1 | – | – | > 29.9 | – | – | 29.9 | – | 0.0043 | – | 7080 | < 1 | 60 | 2.3 | IC50 [12]: 0.61 µM
3 | CCOP(=O)(CCNC(=O)c1[nH]c2ccc(Cl)cc2c1S(=O)(=O)c1cc(C)cc(C)c1)OCC | 3.43 | 6.81 | > 131 | > 131 | 6.71 | 131 | 7.25 | 1.31 | 1.2 | 100 | < 1 | – | – | –
4 | Cc1cc(C)cc(S(=O)(=O)c2c(C(=O)N[C@H]3CCN(CC(N)=O)C3)[nH]c3ccc(Cl)cc23)c1 | 0.025 | 0.011 | > 28.1 | 0.31 | 0.096 | 28.1 | 0.094 | 0.0098 | 0.014 | 2880 | < 1 | – | – | Activity [15]: Non-Toxic; Activity [16]: Non-Toxic; Activity [17]: Non-Toxic; Activity [18]: Non-Toxic; Activity [19]: Non-Toxic; Activity [20]: Non-Toxic; Activity [21]: Non-Toxic; Activity [22]: Non-Toxic; Activity [23]: Non-Toxic; Activity [24]: Non-Toxic; Activity [25]: Non-Toxic; Activity [26]: Non-Toxic; Activity [27]: Non-Toxic; Activity [28]: Non-Toxic; Activity [29]: Non-Toxic; Activity [30]: Non-Toxic; Activity [31]: Non-Toxic; Activity [32]: Non-Toxic; Activity [33]: Non-Toxic
5 | Cc1cc(C)cc(S(=O)(=O)c2c(C(=O)N[C@@H]3CCN(S(C)(=O)=O)C3)[nH]c3ccc(Cl)cc23)c1 | – | – | 7.66 | – | – | 23.9 | – | 0.0047 | – | 5190 | 3 | 55 | 2.1 | –
